The values that follow come from US6387417B1, “Bactericide against vancomycin resistant enterococcus” (priority 2000, dated 2002).

Like-named read-outs stand apart in the source and are kept apart here.

Series [1] has as its system Enterococcus faecalis KIH-C233. Kind of series: MIC of antibiotics for the strain used. Conditions: E. faecalis KIH-C233, collected from a patient. Type of series: cell-based.
Series [2] concerns Enterococcus faecium KIH-234. Briefly: MIC of antibiotics for the strain used. In kind it is cell-based. As to conditions: KIH234, E. faecium KIH-234, collected from a patient.
Series [3] has as its system Enterococcus faecium KIH-237. Kind of series: MIC of antibiotics for the strain used. As to conditions: KIH237, E. faecium KIH-237, collected from an imported chicken. In kind it is cell-based.
The subject of series [4] is Enterococcus gallinarum KIH-241. Briefly: MIC of antibiotics for the strain used. Type of series: cell-based.
The conditions of series [5]: expected maximum; cited from earlier work.
A short description of series [6]: Solubility of hinokitiol in liquid carrier. In kind it is physicochemical.
The mark [7] stands for this setting: Enterococcus faecalis, KIHC233, read-out: MIC.
Where [8] appears, read: Enterococcus gallinarum, E. gallinarum KIH-241, collected from a chicken grown in Japan, read-out: MIC.

Consider `CC1(C)S[C@@H]2[C@H](NC(=O)[C@H](N)c3ccccc3)C(=O)N2[C@H]1C(=O)O` [ABPC, aminobenzylpenicillin], for which the MIC (commonly the lowest concentration found to suppress growth) in series [1] (setting [7]) came to 1 µg/mL; in series [2], 16 µg/mL; in series [3], 4 µg/mL; in series [4] (setting [8]) it was 4 µg/mL.
Turning to `CO[C@@]1(NC(=O)CSCC#N)C(=O)N2C(C(=O)O)=C(CSc3nnnn3C)CS[C@@H]21` [CMZ, cefmetazole], the MIC in series [1] (setting [7]), in series [2], in series [3] and in series [4] (setting [8]) was more than 32 µg/mL each time.
As to `CC[C@H]1OC(=O)[C@H](C)[C@@H](O[C@H]2C[C@@](C)(OC)[C@@H](O)[C@H](C)O2)[C@H](C)[C@@H](O[C@@H]2O[C@H](C)C[C@H](N(C)C)[C@H]2O)[C@](C)(O)C[C@@H](C)C(=O)[C@H](C)[C@@H](O)[C@]1(C)O` [EM, erythromycin], the MIC in series [1] (setting [7]) was more than 32 µg/mL; in series [2], more than 32 µg/mL; in series [3] it was more than 32 µg/mL; in series [4] (setting [8]), more than 1 µg/mL.
With `C[C@@H](O)[C@H]1C(=O)N2C(C(=O)O)=C(SCCN=CN)C[C@H]12` [IPM, imipenem], the MIC in series [1] was found to be 1 µg/mL; in series [4] (E. gallinarum KIH-241, collected from a chicken grown in Japan) it was 1 µg/mL.
`CC1(C)S[C@@H]2[C@H](NC(=O)Cc3ccccc3)C(=O)N2[C@H]1C(=O)O` [PCG, benzylpenicillin]: the MIC in series [1] (setting [7]) was 4 µg/mL; in series [2], 16 µg/mL; in series [3] it was 16 µg/mL; in series [4] (setting [8]) it was 1 µg/mL.
For the molecule `CN[C@H](CC(C)C)C(=O)N[C@H]1C(=O)N[C@@H](CC(N)=O)C(=O)N[C@H]2C(=O)N[C@H]3C(=O)N[C@H](C(=O)N[C@H](C(=O)O)c4cc(O)cc(O)c4-c4cc3ccc4O)[C@H](O)c3ccc(c(Cl)c3)Oc3cc2cc(c3O[C@@H]2O[C@H](CO)[C@@H](O)[C@H](O)[C@H]2O[C@H]2C[C@](C)(N)[C@H](O)[C@H](C)O2)Oc2ccc(cc2Cl)[C@H]1O` [VCM, vancomycin], the MIC in series [1] (setting [7]) stood at 2 µg/mL; in series [2], 0.5 µg/mL; in series [3], 500 µg/mL; in series [4] (Enterococcus gallinarum, GALLINARUM), 8 µg/mL. For the same molecule, in series [5], the “concentration of vancomycin in blood at maximum” value was “no more than 6 μg/ml”.
Take `CC(C)c1cccc(=O)c(O)c1` [hinokitiol, Hinokitiol]: the “hinokitiol content achievable in the composition” value in series [6] (alcohol as liquid carrier, without aloe extract and the like extract) is listed as “up to 5 % by mass”. Moreover, the “hinokitiol concentration obtainable in aqueous solution” value was “up to 10 % by mass” in series [6] (water with surface active agent (glycerin fatty acid ester) and/or botanical emulsifier (quillaia saponin)); “about 1 % by mass” in series [6] (water, combined with the aloe extract and like extracts).
